Details in all cases: at 1 µM
For test [1], the system named is T1, Receptor-type tyrosine-protein kinase FLT3 (Homo sapiens), P36888 [D835H].
T1 sequence (whole entry): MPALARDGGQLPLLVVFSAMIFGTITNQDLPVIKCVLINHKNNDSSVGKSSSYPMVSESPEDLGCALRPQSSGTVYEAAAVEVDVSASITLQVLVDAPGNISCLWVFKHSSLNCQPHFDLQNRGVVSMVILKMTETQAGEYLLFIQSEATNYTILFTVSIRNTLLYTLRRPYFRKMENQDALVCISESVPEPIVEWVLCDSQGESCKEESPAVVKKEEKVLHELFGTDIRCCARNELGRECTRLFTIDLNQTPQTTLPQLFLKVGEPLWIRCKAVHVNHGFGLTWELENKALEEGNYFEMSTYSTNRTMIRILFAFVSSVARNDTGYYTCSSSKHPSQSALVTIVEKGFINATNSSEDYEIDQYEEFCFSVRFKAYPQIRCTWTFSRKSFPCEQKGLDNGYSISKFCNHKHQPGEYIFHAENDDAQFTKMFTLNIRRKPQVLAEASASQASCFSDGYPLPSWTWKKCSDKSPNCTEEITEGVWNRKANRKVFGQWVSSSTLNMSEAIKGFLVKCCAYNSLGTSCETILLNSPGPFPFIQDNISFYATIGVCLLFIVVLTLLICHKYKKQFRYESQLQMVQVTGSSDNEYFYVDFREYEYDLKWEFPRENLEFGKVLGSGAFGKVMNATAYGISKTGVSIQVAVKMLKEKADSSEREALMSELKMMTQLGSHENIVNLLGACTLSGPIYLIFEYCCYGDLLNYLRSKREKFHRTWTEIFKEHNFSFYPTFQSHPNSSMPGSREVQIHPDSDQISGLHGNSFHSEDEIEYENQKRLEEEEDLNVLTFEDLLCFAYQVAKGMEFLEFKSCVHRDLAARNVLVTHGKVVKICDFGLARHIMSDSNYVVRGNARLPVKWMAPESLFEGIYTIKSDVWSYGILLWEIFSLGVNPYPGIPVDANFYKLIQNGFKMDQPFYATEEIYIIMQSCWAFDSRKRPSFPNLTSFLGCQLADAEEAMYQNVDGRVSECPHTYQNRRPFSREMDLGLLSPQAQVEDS
As to the kind of experiment: (§1) Selectivity interaction (KinomeScan (DiscoverX)) EUB0000229b FLT3.

Test [2] concerns T2, Receptor-type tyrosine-protein kinase FLT3 (Homo sapiens), P36888 [D835V].
T2 sequence (whole entry): T1 sequence (whole entry) with H835V
Described as §1.

Test [3] concerns T3, Receptor-type tyrosine-protein kinase FLT3 (Homo sapiens), P36888 [D835Y].
T3 sequence (whole entry): T1 sequence (whole entry) with H835Y
Described as §1.

Test [4] concerns Receptor-type tyrosine-protein kinase FLT3 (Homo sapiens), P36888 [UNDEFINED MUTATION]. Described as §1.

Residue numbers refer to the chain shown, from its start.

Take `COc1cc(N(C)c2ccnc3ccc(C(F)(F)F)cc23)cc(OC)c1OC`: the % binding is 90% in test [1], 88% in test [2], 69% in test [3] and 54% in test [4].

Values taken from ChEMBL document CHEMBL5465560, “Selectivity Literature for EUbOPEN Chemogenomic Library” (2024).
